From US20050096360A1, “Inhibitors of semicarbazide-sensitive amine oxidase (SSAO) and VAP-1 mediated adhesion useful for treatment of diseases” (priority 2003, published 2005)
Where a name gives a salt, the structure may show the parent alone. Read-outs that look alike come from different tables or passages of the source.

How the values were obtained:
[1] = molecular target: T1, SSAO (bovine plasma amine oxidase, PAO) (Bos taurus, UniProt Q29437); assay: In vitro inhibition of SSAO activity, coupled colorimetric method; format: biochemical; details: 30 min preincubation, benzylamine substrate; read-out: SSAO Inhibitory Activity IC50
T1 construct: Bovine plasma amine oxidase (PAO) was purchased from Worthington Biochemical; purchased Worthington Biochemical (Lakewood, N.J.)
T1 sequence (Q29437 17-762): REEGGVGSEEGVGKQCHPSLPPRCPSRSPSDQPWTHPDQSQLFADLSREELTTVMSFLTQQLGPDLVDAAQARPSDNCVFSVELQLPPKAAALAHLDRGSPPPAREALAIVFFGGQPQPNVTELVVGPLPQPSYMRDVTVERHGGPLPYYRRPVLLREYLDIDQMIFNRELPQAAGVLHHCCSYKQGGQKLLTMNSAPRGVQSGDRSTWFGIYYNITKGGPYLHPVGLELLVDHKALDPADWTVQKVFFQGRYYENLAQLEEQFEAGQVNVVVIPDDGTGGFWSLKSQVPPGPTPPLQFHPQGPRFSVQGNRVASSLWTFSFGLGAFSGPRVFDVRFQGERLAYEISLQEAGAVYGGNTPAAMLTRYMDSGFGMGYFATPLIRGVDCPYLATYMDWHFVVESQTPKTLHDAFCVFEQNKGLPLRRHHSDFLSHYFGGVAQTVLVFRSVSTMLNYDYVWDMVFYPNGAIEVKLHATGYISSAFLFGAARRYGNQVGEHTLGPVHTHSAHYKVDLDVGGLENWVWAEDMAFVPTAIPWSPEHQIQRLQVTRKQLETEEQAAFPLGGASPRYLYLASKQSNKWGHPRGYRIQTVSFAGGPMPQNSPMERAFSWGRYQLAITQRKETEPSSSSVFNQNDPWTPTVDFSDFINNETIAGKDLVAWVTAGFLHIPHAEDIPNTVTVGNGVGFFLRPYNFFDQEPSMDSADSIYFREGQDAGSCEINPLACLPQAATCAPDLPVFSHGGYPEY
Procedure: SSAO activity was measured using the coupled colorimetric method essentially as described for monoamine oxidase and related enzymes (Holt A. et al. (1997) Anal. Biochem. 244:384). Bovine plasma amine oxidase (PAO) was purchased from Worthington Biochemical (Lakewood, N.J.) and used as a source of SSAO for activity measurements. The SSAO assay was performed in 96 well microtitre plates as follows. A pre-determined amount of inhibitor diluted in 0.2 M potassium phosphate buffer, pH 7.6, was added to each well, if required. The amount of inhibitor varied in each assay but was generally at a final concentration of between 10 nM and 10 μM. Controls lacked inhibitor. In order to study the effects of potential inhibitors 50 μl of inhibitor solution were preincubated for 30 min at 37° C. with 0.4 mU of PAO in an a total volume of 130 μl of 0.2 M potassium phosphate buffer pH 7.6. Assays were then started by addition of 20 μl 10 mM benzylamine substrate and incubated for 20 min at 37° C. The following reagents were then added to a final reaction volume of 200 μl, 50 μl of freshly made chromogenic solution containing […] vanillic acid (Sigma # V-2250), […] 4-aminoantipyrine (Sigma # A-4328) and 12 U/ml horseradish peroxidase (Sigma # P-8250) in order to cause a change of 0.5 OD A490 per hour. This was within the linear response range of the assay. The plates were incubated for 1 hr at 37° C. and the increase in absorbance, reflecting SSAO activity, was measured at 490 nm using a microplate spectrophotometer (Power Wave 40, Bio-Tek Inst.). Inhibition was presented as percent inhibition compared to control after correcting for background absorbance and IC50 values calculated using GraphPad Prism software.

[2] = molecular target: T2, recombinant human MAO-A (Homo sapiens, UniProt P21397); assay: Inhibition of MAO-A activity, colorimetric; format: biochemical; details: for Specificity for SSAO vs. MAO-A: ratio IC50 MAO-A to IC50 SSAO
T2 construct: purchased BD Biosciences (MA, USA)
T2 sequence (P21397 1-527): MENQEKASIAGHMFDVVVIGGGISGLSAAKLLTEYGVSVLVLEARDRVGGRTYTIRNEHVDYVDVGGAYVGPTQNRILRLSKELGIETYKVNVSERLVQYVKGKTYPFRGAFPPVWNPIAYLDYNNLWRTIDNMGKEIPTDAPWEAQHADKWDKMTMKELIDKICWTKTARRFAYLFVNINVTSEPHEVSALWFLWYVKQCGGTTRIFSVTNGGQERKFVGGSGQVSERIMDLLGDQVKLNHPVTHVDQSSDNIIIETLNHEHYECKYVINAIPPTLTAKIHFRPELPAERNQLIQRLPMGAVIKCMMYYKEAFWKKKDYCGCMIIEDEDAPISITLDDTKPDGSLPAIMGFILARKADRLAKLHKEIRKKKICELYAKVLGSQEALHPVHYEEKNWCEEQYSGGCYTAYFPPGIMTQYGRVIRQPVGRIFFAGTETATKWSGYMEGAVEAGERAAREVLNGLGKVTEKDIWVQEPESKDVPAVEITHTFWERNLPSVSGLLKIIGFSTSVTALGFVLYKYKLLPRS
Procedure: The specificity of the different SSAO inhibitors was tested by determining their ability to inhibit MAO-A and MAO-B activities in vitro. Recombinant human MAO-A and human MAO-B enzymes were obtained from BD Biosciences (MA, USA). […] A pre-determined amount of inhibitor diluted in 0.2 M potassium phosphate buffer, pH 7.6, was added to each well, if required. […] Controls lacked inhibitor. The following agents were then added to a final reaction volume of 200 μl in 0.2 M potassium phosphate buffer, pH 7.6: 0.04 mg/ml of MAO-A or 0.07 mg/ml MAO-B enzyme, 15 μl of 10 mM tyramine substrate (for MAO-A), or 15 μl 100 mM benzylamine substrate (for MAO-B), and 50 μl of freshly made chromogenic solution (as above). The plates were incubated for 60 min at 37° C. The increase in absorbance, reflecting MAO activity, was measured at 490 nm using microplate spectrophotometer (Power Wave 40, Bio-Tek Inst.). Inhibition was presented as percent inhibition compared to control after correcting for background absorbance and IC50 values calculated using GraphPad Prism software.

[3] = in vivo
[4] = tyramine substrate, no pre-incubation, read-out: MAO-A Inhibitory Activity IC50

Compound | IC50 [1] | IC50 [2] | Specificity for SSAO vs. MAO-A [2] | bioavailability after intravenous and intraperitoneal administration [3] | IC50 [2, 4]
C=C(CNN)c1ccccc1 [Example 2, Hydrochloride] | 35 nM | 225000 nM | 6,400 | readily bioavailable | –
C=C(CNN)c1ccc(F)cc1.Cl [Example 8, N-[2-(4′-fluorophenyl)-allyl]-hydrazine Hydrochloride] | 32 nM | – | 69 | readily bioavailable | 2200 nM
Cl.NNC/C(=C/F)c1ccccc1 [Example 10, (E)-1-fluoro-2-phenyl-3-hydrazinopropene Hydrochloride] | 65 nM | – | 43 | readily bioavailable | 2800 nM
